≈ marks a conversion by molar mass, not a printed value.
Columns and labels:
Mannheimia haemolytica = experiment: minimum inhibitory concentration (MIC)
Description: (§1)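 Broth microdilution MIC (Sensititre BOPO7F bovine plate, CLSI methods) of 19 antimicrobials against field isolates of P. multocida, M. haemolytica, H. somni (deep nasopharyngeal swabs) and E. coli, Enterococcus spp. (rectal swabs) from weaned dairy heifers. Incubation 16-24 h at 35 C. MIC is the lowest concentration preventing visible growth. Values with <= or > lie at the tested range limits. Trimethoprim-sulfamethoxazole is given as the trimethoprim component of a 1:19 mixture.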

Enterococcus spp. = experiment: minimum inhibitory concentration (MIC)
Description: as §1

C=C[C@]1(C)C[C@@H](OC(=O)CSCCN(CC)CC)[C@]2(C)[C@H](C)CC[C@]3(CCC(=O)[C@H]32)[C@@H](C)[C@@H]1O [Tiamulin]
minimum inhibitory concentration [µg/mL]
Details | Enterococcus spp. | Mannheimia haemolytica
isolate (source animal id): 2 | 1 (≈ 2.03 µM) | –
isolate (source animal id): 8 | – | 8 (≈ 16.2 µM)
isolate (source animal id): 13 | – | 8 (≈ 16.2 µM)
isolate (source animal id): 18 | – | 8 (≈ 16.2 µM)
isolate (source animal id): 21 | – | 8 (≈ 16.2 µM)
isolate (source animal id): 25 | – | 32 (≈ 64.8 µM)
isolate (source animal id): 27 | – | 16 (≈ 32.4 µM)
isolate (source animal id): 28 | – | 32 (≈ 64.8 µM)
isolate (source animal id): 30 | – | 8 (≈ 16.2 µM)
isolate (source animal id): 31 | – | 32 (≈ 64.8 µM)
isolate (source animal id): 32 | – | 8 (≈ 16.2 µM)
isolate (source animal id): 34 | – | 8 (≈ 16.2 µM)
isolate (source animal id): 35 | > 32 | –
isolate (source animal id): 36 | – | 32 (≈ 64.8 µM)
isolate (source animal id): 37 | – | 16 (≈ 32.4 µM)
isolate (source animal id): 40 | – | 8 (≈ 16.2 µM)
isolate (source animal id): 41 | – | 8 (≈ 16.2 µM)
isolate (source animal id): 42 | > 32 | –
isolate (source animal id): 43 | – | 8 (≈ 16.2 µM)
isolate (source animal id): 44 | > 32 | –
isolate (source animal id): 46 | – | 32 (≈ 64.8 µM)
isolate (source animal id): 49 | – | 16 (≈ 32.4 µM)
isolate (source animal id): 50 | – | 32 (≈ 64.8 µM)
isolate (source animal id): 51 | – | 8 (≈ 16.2 µM)
isolate (source animal id): 52 | – | 8 (≈ 16.2 µM)
isolate (source animal id): 53 | – | 8 (≈ 16.2 µM)
isolate (source animal id): 55 | – | 8 (≈ 16.2 µM)
isolate (source animal id): 56 | – | 8 (≈ 16.2 µM)
isolate (source animal id): 57 | – | 8 (≈ 16.2 µM)
isolate (source animal id): 79 | > 32 | –
isolate (source animal id): 88 | 2 (≈ 4.05 µM) | –
isolate (source animal id): 91 | 2 (≈ 4.05 µM) | –
isolate (source animal id): 92 | > 32 | –
isolate (source animal id): 100 | – | 16 (≈ 32.4 µM)
isolate (source animal id): 103 | – | 32 (≈ 64.8 µM)
isolate (source animal id): 107 | – | 16 (≈ 32.4 µM)
isolate (source animal id): 108 | – | 16 (≈ 32.4 µM)
isolate (source animal id): 111 | 2 (≈ 4.05 µM) | –
isolate (source animal id): 112 | – | 16 (≈ 32.4 µM)
isolate (source animal id): 113 | – | 8 (≈ 16.2 µM)
isolate (source animal id): 121 | – | 32 (≈ 64.8 µM)
isolate (source animal id): 122 | > 32 | 16 (≈ 32.4 µM)
isolate (source animal id): 123 | > 32 | 8 (≈ 16.2 µM)
isolate (source animal id): 126 | – | 32 (≈ 64.8 µM)
isolate (source animal id): 133 | ≤ 0.5 | 8 (≈ 16.2 µM)
isolate (source animal id): 135 | – | 8 (≈ 16.2 µM)
isolate (source animal id): 138 | – | 32 (≈ 64.8 µM)
isolate (source animal id): 141 | – | 8 (≈ 16.2 µM)
isolate (source animal id): 142 | – | 32 (≈ 64.8 µM)
isolate (source animal id): 145 | – | 32 (≈ 64.8 µM)
isolate (source animal id): 149 | – | 8 (≈ 16.2 µM)
isolate (source animal id): 151 | – | 16 (≈ 32.4 µM)
isolate (source animal id): 152 | – | 32 (≈ 64.8 µM)
isolate (source animal id): 154 | – | 16 (≈ 32.4 µM)
isolate (source animal id): 158 | > 32 | –
isolate (source animal id): 159 | – | 32 (≈ 64.8 µM)
isolate (source animal id): 162 | – | 16 (≈ 32.4 µM)
isolate (source animal id): 168 | 1 (≈ 2.03 µM) | –
isolate (source animal id): 169 | 1 (≈ 2.03 µM) | –
isolate (source animal id): 170 | – | > 32
isolate (source animal id): 171 | > 32 | 16 (≈ 32.4 µM)
isolate (source animal id): 172 | – | 32 (≈ 64.8 µM)
isolate (source animal id): 173 | – | > 32
isolate (source animal id): 175 | > 32 | –
isolate (source animal id): 177 | > 32 | –
isolate (source animal id): 179 | – | 16 (≈ 32.4 µM)
isolate (source animal id): 180 | – | 16 (≈ 32.4 µM)
isolate (source animal id): 181 | 1 (≈ 2.03 µM) | –
isolate (source animal id): 182 | 1 (≈ 2.03 µM) | –
isolate (source animal id): 183 | > 32 | 8 (≈ 16.2 µM)
isolate (source animal id): 186 | – | 8 (≈ 16.2 µM)
isolate (source animal id): 187 | 1 (≈ 2.03 µM) | 16 (≈ 32.4 µM)
isolate (source animal id): 188 | – | 8 (≈ 16.2 µM)
isolate (source animal id): 190 | 1 (≈ 2.03 µM) | 16 (≈ 32.4 µM)
isolate (source animal id): 191 | – | > 32
isolate (source animal id): 192 | – | 16 (≈ 32.4 µM)
isolate (source animal id): 194 | > 32 | –
isolate (source animal id): 195 | 1 (≈ 2.03 µM) | –
isolate (source animal id): 197 | 8 (≈ 16.2 µM) | –
isolate (source animal id): 201 | – | > 32
isolate (source animal id): 202 | – | > 32
isolate (source animal id): 209 | – | > 32
isolate (source animal id): 211 | ≤ 0.5 | 32 (≈ 64.8 µM)
isolate (source animal id): 214 | 16 (≈ 32.4 µM) | –
isolate (source animal id): 220 | – | 32 (≈ 64.8 µM)
isolate (source animal id): 221 | – | > 32
isolate (source animal id): 222 | > 32 | –
isolate (source animal id): 223 | > 32 | > 32
isolate (source animal id): 228 | ≤ 0.5 | –
isolate (source animal id): 230 | ≤ 0.5 | –
isolate (source animal id): 233 | – | 32 (≈ 64.8 µM)
isolate (source animal id): 235 | ≤ 0.5 | –
isolate (source animal id): 236 | > 32 | –
isolate (source animal id): 237 | – | 32 (≈ 64.8 µM)
isolate (source animal id): 239 | 2 (≈ 4.05 µM) | –
isolate (source animal id): 241 | ≤ 0.5 | > 32
isolate (source animal id): 244 | > 32 | –
isolate (source animal id): 246 | > 32 | –
isolate (source animal id): 247 | ≤ 0.5 | –
isolate (source animal id): 250 | > 32 | –
isolate (source animal id): 252 | > 32 | 32 (≈ 64.8 µM)
isolate (source animal id): 253 | – | 16 (≈ 32.4 µM)
isolate (source animal id): 259 | – | 16 (≈ 32.4 µM)
isolate (source animal id): 260 | – | 32 (≈ 64.8 µM)
isolate (source animal id): 262 | – | 32 (≈ 64.8 µM)
isolate (source animal id): 268 | 1 (≈ 2.03 µM) | –
isolate (source animal id): 282 | > 32 | 32 (≈ 64.8 µM)
isolate (source animal id): 285 | > 32 | –
isolate (source animal id): 287 | – | 32 (≈ 64.8 µM)
isolate (source animal id): 288 | – | 8 (≈ 16.2 µM)
isolate (source animal id): 289 | > 32 | –
isolate (source animal id): 290 | > 32 | –
isolate (source animal id): 291 | – | 16 (≈ 32.4 µM)
isolate (source animal id): 293 | – | 32 (≈ 64.8 µM)
isolate (source animal id): 296 | > 32 | –
isolate (source animal id): 298 | ≤ 0.5 | 16 (≈ 32.4 µM)
isolate (source animal id): 299 | – | 16 (≈ 32.4 µM)
isolate (source animal id): 300 | – | 8 (≈ 16.2 µM)
isolate (source animal id): 301 | 32 (≈ 64.8 µM) | –
isolate (source animal id): 302 | – | 16 (≈ 32.4 µM)
isolate (source animal id): 304 | – | 16 (≈ 32.4 µM)
isolate (source animal id): 306 | – | 8 (≈ 16.2 µM)
isolate (source animal id): 308 | – | 8 (≈ 16.2 µM)
isolate (source animal id): 309 | – | 8 (≈ 16.2 µM)
isolate (source animal id): 310 | > 32 | –
isolate (source animal id): 313 | – | 32 (≈ 64.8 µM)
isolate (source animal id): 318 | – | 16 (≈ 32.4 µM)
isolate (source animal id): 320 | > 32 | 16 (≈ 32.4 µM)
isolate (source animal id): 321 | – | 32 (≈ 64.8 µM)
isolate (source animal id): 323 | – | 16 (≈ 32.4 µM)
isolate (source animal id): 324 | – | 32 (≈ 64.8 µM)
isolate (source animal id): 326 | – | > 32
isolate (source animal id): 328 | – | 32 (≈ 64.8 µM)
isolate (source animal id): 329 | – | 32 (≈ 64.8 µM)
isolate (source animal id): 331 | > 32 | –
isolate (source animal id): 333 | > 32 | 32 (≈ 64.8 µM)
isolate (source animal id): 335 | – | 16 (≈ 32.4 µM)
isolate (source animal id): 338 | – | 32 (≈ 64.8 µM)
isolate (source animal id): 341 | > 32 | –

Source: the supplement of paper PMC8612539
